Experimental findings from patent US20260092086A1, “ANTIMICROBIAL LASSO PEPTIDES” (priority 2022, published 2026) are described below.

Series [1] deals with Enterobacter ludwigii MGH216. Briefly: Spot-on-lawn assay in M63 agar, clinical isolate. The format is cell-based. The settings on record: reliably susceptible in at least three biological replicates. As to the method:
Cloacaenodin was evaluated against several common laboratory strains as well as commercially acquired strains using a spot-on-lawn assay.^45 Strains were streaked out onto LB agar plates and incubated overnight at their recommended temperatures. A single colony was then used to inoculate an overnight culture in 5 mL of LB broth. After shaking at 250 rpm at the recommended temperature for each strain, 50 μL of the overnight culture was used to inoculate 5 mL of LB broth (volume ratio 1:100). These cultures were grown for a few hours until they reached the exponential phase (OD600˜0.4-0.6) before being added to 10 mL of soft M63 agar at a final cell density of 10^7 CFUs/mL, or 10^8 CFUs total in 10 mL. The M63 soft agar was composed of 2 g/L of (NH4)2SO4 (EMD MilliporeSigma), 13.6 g/L of KH2PO4 (Fisher), 40 mg/L of each of the 20 common amino acids, 0.2% glucose (Sigma), 0.00005% w/v thiamine hydrochloride (Sigma), and 0.65% w/v bacteriological-grade agar (Apex Bioresearch). […] Upon solidification, 10 μL of purified cloacaenodin in water at two-fold dilutions were then spotted onto the agar and allowed to dry. The plates were incubated overnight at the strains' recommended temperatures and analyzed the next morning for activity. The MIC is defined as the last dilution where a spot was visible. […]

Series [2] in a line: Stability of NMR sample kept at 4° C., LC-MS before and after acquisition. In kind it is physicochemical. Particulars: 95:5 H2O:D2O. As to the method: The structure of cloacaenodin in water was determined using two-dimensional (2D) nuclear magnetic resonance (NMR) analysis, a technique that has been successfully used to show the threaded shape of lasso peptides.^51 The possibility of cloacaenodin unthreading during the NMR acquisition was addressed by keeping the sample at 4° C. throughout acquisition. […] As an additional control, one-dimensional (1D) NMR spectra were acquired in between each 2D NMR spectrum acquisition to ensure stability of the sample (FIG. 12).
NMR studies were performed at the Princeton University Department of Chemistry NMR Facilities using a Bruker Avance III HD 800 MHz NMR spectrometer. Purified cloacaenodin was prepared at a concentration of 6.7 mg/mL (2.6 mM) in 95:5 H2O:D2O. The NMR spectra were acquired at 4° C. to minimize any cloacaenodin unthreading. A ^1H-^1H TOCSY spectrum at a mixing time of 80 ms was acquired, as well as 1H-1H NOESY spectra at 150 ms and 300 ms. Water suppression was used in the collection of all NMR data. To verify that the lasso peptide was not undergoing unthreading, 1D 1H NMR data were collected in between each 2D NMR acquisition and analyzed to see that the 1D spectra stayed consistent. […]

The test system of series [3] is Enterobacter kobei MGH178. The format is cell-based. Here is the method:
(§1) Cloacaenodin was evaluated against several common laboratory strains as well as commercially acquired strains using a spot-on-lawn assay.^45 Strains were streaked out onto LB agar plates and incubated overnight at their recommended temperatures. A single colony was then used to inoculate an overnight culture in 5 mL of LB broth. After shaking at 250 rpm at the recommended temperature for each strain, 50 μL of the overnight culture was used to inoculate 5 mL of LB broth (volume ratio 1:100). These cultures were grown for a few hours until they reached the exponential phase (OD600˜0.4-0.6) before being added to 10 mL of soft M63 agar at a final cell density of 10^7 CFUs/mL, or 10^8 CFUs total in 10 mL. The M63 soft agar was composed of 2 g/L of (NH4)2SO4 (EMD MilliporeSigma), 13.6 g/L of KH2PO4 (Fisher), 40 mg/L of each of the 20 common amino acids, 0.2% glucose (Sigma), 0.00005% w/v thiamine hydrochloride (Sigma), and 0.65% w/v bacteriological-grade agar (Apex Bioresearch). […] Upon solidification, 10 μL of purified cloacaenodin in water at two-fold dilutions were then spotted onto the agar and allowed to dry. The plates were incubated overnight at the strains' recommended temperatures and analyzed the next morning for activity. The MIC is defined as the last dilution where a spot was visible.
(§2) Twelve (12) clinical isolates were tested at the Broad Institute of MIT and Harvard, with a subset of strains from BioProject PRJNA292902, BioProject PRJNA271899, BioProject PRJNA201976, and BioProject 219285. The strains were tested following the same spot-on-lawn assay protocol described above, but with BD Bacto Agar used instead. All cloacaenodin-treated isolates were incubated at 37° C. overnight, and the assay was repeated at least three times (on biological replicates) for each of the twelve (12) strains. We defined a strain to be susceptible if it was reliably susceptible in at least three biological replicates.

In series [4] the test system is Enterobacter asburiae UCI193. The format is cell-based. As to the method: as §1, §2
The subject of series [5] is Enterobacter asburiae MGH243. In kind it is cell-based. Here is the method:
as §1, §2

Series [6] has as its system Enterobacter cloacae UCI102. In kind it is cell-based. Here is the method: as §1, §2
Series [7] has as its system Enterobacter hormaechei UCI35. In kind it is cell-based. Here is the method:
as §1, §2

For series [8] the following is noted: 18 μM in pure water, 37° C., 72 hours (3 days). Here is the method: A 200 μL sample of purified ˜18 μM cloacaenodin in water was incubated at 37° C. for 72 hours. 30 μL of the sample was injected on LC-MS at 24-hour increments.
The next series concerns the target T1, trypsin (Sus scrofa, UniProt P00761).
T1 construct: purchased Promega
The experiment in a line: Protease digestion, trypsin. The format is in vitro ADME. The settings on record: 50 μM peptide, room temperature, 30 minutes to 1 hour, LC-MS. As to the method: Sequencing grade trypsin (Promega) was added to 50 μM peptide samples at a 1:100 trypsin: peptide weight ratio in a buffer of 50 mM ammonium bicarbonate. The reaction was allowed to proceed at room temperature for 30 minutes to 1 hour and then quenched by 1% formic acid. An aliquot was then injected onto LC-MS for analysis.

Series [9] relates to Enterobacter nimipressuralis DSM 18955. In kind it is cell-based.
For a further series, the system named is E. coli MG1655. The experiment in a line: Spot-on-lawn assay in M63 agar. The format is cell-based, Escherichia coli. The settings on record: purified cloacaenodin in water. Here is the method:
as §1

Another series has as its target T2, Elastase (Sus scrofa, UniProt P00772).
T2 construct: purchased Promega
Briefly: Protease digestion, elastase. The format is in vitro ADME. Particulars: 50 μM peptide, 25° C., about 1 hour, LC-MS. Here is the method:
Elastase (Promega) was resuspended in 50 mM Tris pH 9.0. The enzyme was added to 50 μM peptide samples at a final enzyme concentration of about 0.04 mg/mL in a buffer of 50 mM Tris, pH 9. The reactions were then allowed to incubate at 25° C. for about 1 hour before quenching with 1% formic acid. An aliquot was then injected into LC-MS for analysis.

For series [10], the system named is Enterobacter cloacae UCI102. The experiment in a line: MIC in M63 media (liquid). In kind it is cell-based. Particulars: clinical isolate Enterobacter cloacae UCI102. Here is the method:
For liquid inhibition assays, 5 mL LB broth was inoculated with 40-50 μL of an overnight culture of E. cloacae or E. amnigenus. […] The plate was shaken at 30° C. at 250 rpm for E. cloacae, and 37° C. at 250 rpm for E. amnigenus. The OD600 was measured at 8-hour and 16-hour increments. The MIC is defined as the lowest concentration of cloacaenodin for which growth (as assessed by the OD600) was inhibited.

Where [11] appears, read: listed as Threaded cloacaenodin.
Where [12] appears, read: listed as threaded cloacaenodin.

≈ marks a conversion by molar mass, not a printed value. Where “and” joins values, the source holds several entries; their conditions need not be identical. Equal entries are not always repeated. Where two headings read alike, the source gives them in different places. Where a SMILES comes first, the peptide text is derived from it.

T1 sequence (P00761 9-231): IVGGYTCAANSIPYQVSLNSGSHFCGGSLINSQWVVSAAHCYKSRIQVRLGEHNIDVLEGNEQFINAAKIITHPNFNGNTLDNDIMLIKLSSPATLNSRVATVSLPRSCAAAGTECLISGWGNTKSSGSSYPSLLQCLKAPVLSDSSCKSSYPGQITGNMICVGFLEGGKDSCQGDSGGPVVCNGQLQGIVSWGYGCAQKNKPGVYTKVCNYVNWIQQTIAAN
T2 sequence (P00772 27-266): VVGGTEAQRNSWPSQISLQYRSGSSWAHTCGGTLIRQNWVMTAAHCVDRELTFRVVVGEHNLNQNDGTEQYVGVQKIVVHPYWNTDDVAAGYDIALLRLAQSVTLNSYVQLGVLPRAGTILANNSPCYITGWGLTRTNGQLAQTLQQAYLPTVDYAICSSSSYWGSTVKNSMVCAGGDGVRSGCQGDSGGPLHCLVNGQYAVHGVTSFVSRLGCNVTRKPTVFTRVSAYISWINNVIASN

For the compound `CC[C@H](C)[C@@H]1NC(=O)[C@H](CCCNC(=N)N)NC(=O)[C@H](CC(=O)O)NC(=O)[C@H](C(C)C)NC(=O)[C@H](CO)NC(=O)[C@H](Cc2c[nH]cn2)NC(=O)CNC(=O)CC[C@@H](C(=O)N[C@@H](Cc2ccc(O)cc2)C(=O)N[C@@H](Cc2ccccc2)C(=O)NCC(=O)N2CCC[C@H]2C(=O)N2CCC[C@H]2C(=O)NCC(=O)N[C@@H](CC(C)C)C(=O)N2CCC[C@H]2C(=O)NCC(=O)N2CCC[C@H]2C(=O)N[C@H](C(=O)N[C@@H](CC(C)C)C(=O)N[C@@H](Cc2ccccc2)C(=O)N[C@@H](Cc2ccc(O)cc2)C(=O)N[C@@H](CO)C(=O)O)C(C)C)NC(=O)[C@@H]2CCCN2C1=O` [cloacaenodin] (HELM PEPTIDE1{G.H.S.V.D.R.I.P.E.Y.F.G.P.P.G.L.P.G.P.V.L.F.Y.S}$PEPTIDE1,PEPTIDE1,1:R1-9:R3$$$V2.0; C-terminus assumed), the “strain susceptible to cloacaenodin” value in series [1] is “* MGH216”; in series [4] (clinical strain UCI193, reliably susceptible in at least three biological replicates), “* UCI193”. Also, the “threaded state after NMR acquisition” value in series [2] is “remained threaded”. The “MIC in M63 media” value in series [3] came to 1 µM (≈ 2.58 µg/mL); in [4] it was 2 µM (≈ 5.17 µg/mL); in [5], 2 µM (≈ 5.17 µg/mL); in series [6], 0.5 µM (≈ 1.29 µg/mL); in series [7], 1 µM (≈ 2.58 µg/mL); in series [9], 0.94 µM (≈ 2.43 µg/mL). Moreover, the “MIC in M63 media” value in [10] is given as “(agar)/230 nM”. The “fraction remaining threaded (relative peak area on LC-MS)” value in [8] is ~83% and > 80%. In addition, the proteolysis by trypsin entry on trypsin (setting [11]) is reported as “resistant to trypsin digestion”; at trypsin (setting [12]) it was “remained resistant to proteolysis”. In addition, the “antimicrobial activity (zones of inhibition)” value in the series on E. coli MG1655 is reported as “no observed activity”. The proteolysis by elastase result is given as “resistant to elastase digestion” at Elastase (setting [11]) and “remained resistant to proteolysis” on Elastase (setting [12]).
